Data: PubChem BioAssay (NCI)
Values joined by “and” are separate entries in the source; they are usually repeats but may differ in a detail not shown here. Equal entries are not always repeated.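 All cell lines were grown in 96-well plates and treated with compound for 48 hours. Here, GI50 denotes the concentration required for 50% inhibition of growth. TGI marks complete inhibition of growth.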

Assays:
Assay in all cases: NCI-60 cell line screen, 48 h
[1] = system: 786-0 renal
[2] = system: A498 renal
[3] = system: A549 NSCLC
[4] = system: ACHN renal
[5] = system: BT-549 breast
[6] = system: CAKI-1 renal
[7] = system: CCRF-CEM leukemia
[8] = system: COLO 205 colon
[9] = system: DLD-1 colon
[10] = system: DMS 114 small cell lung
[11] = system: DMS 273 small cell lung
[12] = system: DU-145 prostate
[13] = system: EKVX NSCLC
[14] = system: HCC-2998 colon
[15] = system: HCT-116 colon
[16] = system: HCT-15 colon
[17] = system: HL-60(TB) leukemia
[18] = system: HOP-18 NSCLC
[19] = system: HOP-62 NSCLC
[20] = system: HOP-92 NSCLC
[21] = system: HS 578T breast
[22] = system: HT29 colon
[23] = system: IGROV1 ovarian
[24] = system: K-562 leukemia
[25] = system: KM12 colon
[26] = system: KM20L2 colon
[27] = system: LOX IMVI melanoma
[28] = system: LXFL 529 NSCLC
[29] = system: M14 melanoma
[30] = system: MALME-3M melanoma
[31] = system: MCF7 breast
[32] = system: MDA-MB-231 breast
[33] = system: MDA-MB-435
[34] = system: MDA-N
[35] = system: MOLT-4 leukemia
[36] = system: NCI-H226 lung
[37] = system: NCI-H23 lung
[38] = system: NCI-H460 lung
[39] = system: NCI-H522 lung
[40] = system: NCI/ADR-RES ovarian
[41] = system: OVCAR-3 ovarian
[42] = system: OVCAR-4 ovarian
[43] = system: OVCAR-5 ovarian
[44] = system: OVCAR-8 ovarian
[45] = system: PC-3 prostate
[46] = system: RPMI-8226 leukemia
[47] = system: RXF 393 renal
[48] = system: SF-268 CNS
[49] = system: SF-295 CNS
[50] = system: SF-539 CNS
[51] = system: SK-MEL-2 melanoma
[52] = system: SK-MEL-28 melanoma
[53] = system: SK-MEL-5 melanoma
[54] = system: SK-OV-3 ovarian
[55] = system: SN12C renal
[56] = system: SNB-19 CNS
[57] = system: SNB-75 CNS
[58] = system: SNB-78 CNS
[59] = system: SR leukemia
[60] = system: SW-620 colon
[61] = system: T-47D breast
[62] = system: TK-10 renal
[63] = system: U251 CNS
[64] = system: UACC-257 melanoma
[65] = system: UACC-62 melanoma
[66] = system: UO-31 renal
[67] = system: XF 498 CNS
[68] = system: M19-MEL melanoma

COc1cc(CNc2ccc(SC)cc2)cc(OC)c1OC
TGI [1]: 77.2 µM and 65.8 µM
TGI [2]: 79.4 µM and 67.7 µM
TGI [3]: > 100 µM
GI50 [4]: 22.8 µM and 11 µM
TGI [4]: > 100 µM
GI50 [5]: 9.13 µM
TGI [5]: > 100 µM
GI50 [6]: 22.5 µM and 11.1 µM
TGI [6]: > 97.1 µM
TGI [7]: > 90.6 µM
TGI [8]: 12.8 µM and 12.4 µM
GI50 [9]: 12 µM and 5.85 µM
TGI [9]: > 100 µM
TGI [10]: 20.9 µM and 8.02 µM
TGI [11]: 28.1 µM and > 36.7 µM
GI50 [12]: 24.8 µM and 7.82 µM
TGI [12]: > 95.7 µM
TGI [13]: > 100 µM
GI50 [14]: 11 µM and 4.92 µM
TGI [14]: > 60 µM and 26.6 µM
TGI [15]: 51.1 µM and 35.4 µM
TGI [16]: 57.5 µM and 78.2 µM
TGI [17]: 42.6 µM and 40.2 µM
TGI [18]: > 100 µM
GI50 [19]: 12.1 µM and 4.68 µM
TGI [19]: > 100 µM and 61.1 µM
GI50 [20]: 15.2 µM and 6.16 µM
TGI [20]: > 96.1 µM and 47.6 µM
TGI [21]: > 77.7 µM
TGI [22]: 29.9 µM and 14.5 µM
GI50 [23]: 17.2 µM and 7.73 µM
TGI [23]: > 82.1 µM and 71.6 µM
GI50 [24]: 3.99 µM and 1.49 µM
TGI [24]: 44.9 µM and > 63.6 µM
GI50 [25]: 4.44 µM and 2.21 µM
TGI [25]: > 62.7 µM and 20.7 µM
TGI [26]: 19.5 µM and 23.3 µM
TGI [27]: > 59.7 µM and 45.9 µM
TGI [28]: > 100 µM
GI50 [29]: 5.28 µM
TGI [29]: > 47 µM and 37.9 µM
TGI [30]: > 100 µM
TGI [31]: > 100 µM
GI50 [32]: 15 µM and 6.23 µM
TGI [32]: > 100 µM
GI50 [33]: 1.67 µM and 0.638 µM
TGI [33]: 80 µM
GI50 [34]: 3.35 µM and 1.05 µM
TGI [34]: 7.15 µM
TGI [35]: > 100 µM
GI50 [36]: 26.4 µM and 11.9 µM
TGI [36]: > 100 µM and 84.7 µM
GI50 [37]: 14.6 µM and 6.14 µM
TGI [37]: 44 µM and 46.7 µM
TGI [38]: > 100 µM
TGI [39]: 29.3 µM and 11 µM
TGI [40]: 23.9 µM and > 22.6 µM
TGI [41]: 54.1 µM and 19.6 µM
TGI [42]: > 100 µM
TGI [43]: > 92.1 µM and 87.3 µM
GI50 [44]: 27.1 µM and 7.69 µM
TGI [44]: > 92.6 µM and 56 µM
TGI [45]: > 100 µM and 47.7 µM
TGI [46]: > 78.3 µM and 66.2 µM
GI50 [47]: 2.27 µM and 6.5 µM
TGI [47]: 39.6 µM and 42.7 µM
GI50 [48]: 19.9 µM and 7.47 µM
TGI [48]: > 100 µM and 69.3 µM
GI50 [49]: 8.24 µM and 3.57 µM
TGI [49]: 53.8 µM and 22.1 µM
GI50 [50]: 11.4 µM and 3.06 µM
TGI [50]: 44.4 µM and 12.3 µM
TGI [51]: 46 µM and > 50.6 µM
GI50 [52]: 23.7 µM and 5.71 µM
TGI [52]: 99.4 µM and > 76.9 µM
GI50 [53]: 11.6 µM and 4.51 µM
TGI [53]: 59.6 µM and 16 µM
GI50 [54]: 15.4 µM and 5.05 µM
TGI [54]: 64.2 µM and 44.6 µM
GI50 [55]: 19.3 µM and 9.07 µM
TGI [55]: > 100 µM
GI50 [56]: 25.4 µM and 10.1 µM
TGI [56]: > 100 µM
GI50 [57]: 15.7 µM and 6.28 µM
TGI [57]: 86.3 µM and 65.5 µM
TGI [58]: > 100 µM
GI50 [59]: 4.17 µM and 1.63 µM
TGI [59]: > 100 µM
TGI [60]: > 100 µM
GI50 [61]: 24.7 µM and 7.05 µM
TGI [61]: > 100 µM and 69.8 µM
GI50 [62]: 41 µM and 16.7 µM
TGI [62]: > 93.3 µM and 77.5 µM
GI50 [63]: 10.8 µM and 4.13 µM
TGI [63]: 61.6 µM and 32.9 µM
GI50 [64]: 24.9 µM and 9.7 µM
TGI [64]: > 91.7 µM and 41.8 µM
GI50 [65]: 10.7 µM and 4.64 µM
TGI [65]: > 80.7 µM and 51.1 µM
TGI [66]: 83.1 µM and 51.1 µM
GI50 [67]: 23.4 µM and 11.1 µM
TGI [67]: 91.2 µM and 40 µM

CC(C)C(=O)/C=C/c1ccc(Br)cc1
TGI [1]: 23.2 µM
TGI [2]: 28 µM
TGI [3]: 65.5 µM
TGI [4]: 25.4 µM
TGI [7]: 21.5 µM
TGI [8]: 56.1 µM
TGI [9]: 20.3 µM
TGI [10]: 37 µM
TGI [11]: 28.7 µM
TGI [13]: 50.9 µM
TGI [14]: 30.9 µM
TGI [15]: 17.4 µM
TGI [17]: 41.2 µM
TGI [20]: 30.9 µM
TGI [22]: 31.6 µM
TGI [23]: 34.5 µM
TGI [24]: > 100 µM
TGI [25]: 27.5 µM
TGI [26]: 21.5 µM
TGI [27]: 32.1 µM
TGI [28]: 33.8 µM
TGI [29]: 32.4 µM
TGI [68]: 28.9 µM
TGI [35]: 95.9 µM
TGI [37]: 38.2 µM
TGI [38]: 30.1 µM
TGI [39]: 41.5 µM
TGI [41]: 27.3 µM
TGI [42]: 63.3 µM
TGI [43]: 27.5 µM
TGI [44]: 62.9 µM
TGI [46]: 39.2 µM
TGI [47]: 36 µM
TGI [48]: 48.4 µM
TGI [49]: 29.9 µM
TGI [50]: 35.5 µM
TGI [51]: 29.7 µM
TGI [52]: 41 µM
TGI [53]: 26.6 µM
TGI [54]: 49.6 µM
TGI [55]: 28.5 µM
TGI [56]: 29.8 µM
TGI [57]: 32.8 µM
TGI [58]: > 100 µM
TGI [59]: 53.6 µM
TGI [60]: 23.1 µM
TGI [62]: 32.3 µM
TGI [63]: 22.9 µM
TGI [64]: 30.8 µM
TGI [65]: 28 µM
TGI [66]: 30.1 µM
TGI [67]: 30.4 µM
